± gives the uncertainty stated by the source.
Experiment: xn = mol fraction of the nth substance listed

CCCCn1cc[n+](C)c1.F[B-](F)(F)F + CC(C)O
101.33 kPa
Settings	viscosity [mPa·s]
293.15 K, x1 = 0.8458	68.89 ± 10
293.15 K, x1 = 0.9327	95.48 ± 14
298.15 K, x1 = 0.1585	7.02 ± 1.1
298.15 K, x1 = 0.9327	82.35 ± 12
303.15 K, x1 = 0.2402	9.55 ± 1.4
303.15 K, x1 = 0.9327	70.16 ± 11
308.15 K, x1 = 0.2402	8.45 ± 1.3
313.15 K, x1 = 0.2402	6.79 ± 1
313.15 K, x1 = 0.3505	9.91 ± 1.5
318.15 K, x1 = 0.3505	7.14 ± 1.1
318.15 K, x1 = 0.4422	9.33 ± 1.4
323.15 K, x1 = 0.5619	8.26 ± 1.2

CC(O)CC(C)(C)O (configuration not stated) + CN(C)c1ccccc1
viscosity [mPa·s], 101 kPa
Settings	x1 = 0.0947	x1 = 0.1893	x1 = 0.2866	x1 = 0.3878	x1 = 0.4988	x1 = 0.5875	x1 = 0.6895	x1 = 0.7899	x1 = 0.8859
308.15 K	1.042 ± 0.1	1.107 ± 0.11	1.216 ± 0.12	1.395 ± 0.14	1.761 ± 0.18	2.037 ± 0.2	2.999 ± 0.3	5.285 ± 0.53	9.275 ± 0.93
318.15 K	0.8643 ± 0.087	0.9274 ± 0.093	1.015 ± 0.1	1.185 ± 0.12	1.416 ± 0.14	1.688 ± 0.17	2.505 ± 0.25	4.534 ± 0.45	8.117 ± 0.81

O=S(=O)([O-])NC1CCCCC1.[Rb+] + O
viscosity [mPa·s], 101 kPa
Settings	x1 = 0.00091	x1 = 0.001356	x1 = 0.001833	x1 = 0.002303	x1 = 0.002722	x1 = 0.003185	x1 = 0.003618	x1 = 0.004055	x1 = 0.004552
293.15 K	1.024 ± 0.0068	1.036 ± 0.0069	1.048 ± 0.007	1.061 ± 0.0071	1.072 ± 0.0071	1.084 ± 0.0072	1.096 ± 0.0072	1.108 ± 0.0073	1.123 ± 0.0074
298.15 K	0.9105 ± 0.0062	0.9203 ± 0.0062	0.9315 ± 0.0063	0.9419 ± 0.0063	0.9516 ± 0.0064	0.962 ± 0.0065	0.9723 ± 0.0065	0.9828 ± 0.0066	0.9953 ± 0.0066
303.15 K	0.8157 ± 0.0056	0.8243 ± 0.0056	0.8343 ± 0.0057	0.8431 ± 0.0057	0.8516 ± 0.0058	0.8608 ± 0.0058	0.8696 ± 0.0059	0.8789 ± 0.0059	0.8887 ± 0.006
313.15 K	0.6675 ± 0.0047	0.6747 ± 0.0047	0.6824 ± 0.0048	0.6896 ± 0.0048	0.696 ± 0.0049	0.7034 ± 0.0049	0.7104 ± 0.0049	0.7177 ± 0.005	0.7252 ± 0.005
323.15 K	0.5585 ± 0.0041	0.564 ± 0.0041	0.5704 ± 0.0041	0.5762 ± 0.0042	0.5814 ± 0.0042	0.5874 ± 0.0042	0.5931 ± 0.0043	0.5992 ± 0.0043	0.6057 ± 0.0043

Cc1ccc(O)cc1 + CCC(=O)O
viscosity [mPa·s], 101 kPa
Settings	x2 = 0.1344	x2 = 0.2589	x2 = 0.3745	x2 = 0.4823	x2 = 0.5828	x2 = 0.677	x2 = 0.7653	x2 = 0.8482	x2 = 0.9263
298.15 K	10.16 ± 0.76	7.533 ± 0.59	5.663 ± 0.48	4.309 ± 0.38	3.321 ± 0.3	2.59 ± 0.23	2.042 ± 0.19	1.625 ± 0.15	1.297 ± 0.12
308.15 K	6.121 ± 0.5	4.928 ± 0.43	3.983 ± 0.35	3.238 ± 0.29	2.597 ± 0.23	2.136 ± 0.2	1.709 ± 0.16	1.372 ± 0.13	1.112 ± 0.11
318.15 K	4.876 ± 0.42	4.035 ± 0.35	3.365 ± 0.3	2.772 ± 0.25	2.281 ± 0.21	1.853 ± 0.17	1.512 ± 0.14	1.241 ± 0.12	0.9766 ± 0.097

Nc1ccccc1Cl + Clc1ccccc1Cl
viscosity [mPa·s], 101 kPa
Settings	x1 = 0.1063	x1 = 0.2111	x1 = 0.3145	x1 = 0.4164	x1 = 0.517	x1 = 0.6162	x1 = 0.7141	x1 = 0.8107	x1 = 0.906
303.15 K	1.4 ± 0.28	1.584 ± 0.32	1.786 ± 0.36	2.008 ± 0.4	2.251 ± 0.45	2.516 ± 0.5	2.805 ± 0.56	3.119 ± 0.62	3.458 ± 0.69
308.15 K	1.295 ± 0.26	1.461 ± 0.29	1.642 ± 0.33	1.84 ± 0.37	2.054 ± 0.41	2.287 ± 0.46	2.539 ± 0.51	2.81 ± 0.56	3.101 ± 0.62
313.15 K	1.192 ± 0.24	1.342 ± 0.27	1.506 ± 0.3	1.683 ± 0.34	1.875 ± 0.38	2.081 ± 0.42	2.303 ± 0.46	2.54 ± 0.51	2.792 ± 0.56
318.15 K	1.102 ± 0.22	1.24 ± 0.25	1.39 ± 0.28	1.551 ± 0.31	1.724 ± 0.34	1.909 ± 0.38	2.105 ± 0.42	2.313 ± 0.46	2.532 ± 0.51

CC(O)CC(C)(C)O (configuration not stated) + O=[N+]([O-])c1ccccc1
viscosity [mPa·s], 101 kPa
Settings	x1 = 0.0918	x1 = 0.1905	x1 = 0.2926	x1 = 0.3853	x1 = 0.4886	x1 = 0.5862	x1 = 0.6895	x1 = 0.7727	x1 = 0.8991
308.15 K	1.724 ± 0.17	1.903 ± 0.19	2.194 ± 0.22	2.574 ± 0.26	3.288 ± 0.33	4.074 ± 0.41	5.512 ± 0.55	7.423 ± 0.74	12.38 ± 1.2
318.15 K	1.332 ± 0.13	1.478 ± 0.15	1.703 ± 0.17	2.012 ± 0.2	2.606 ± 0.26	3.222 ± 0.32	4.571 ± 0.46	6.127 ± 0.61	10.82 ± 1.1

O=S(=O)(Cl)Cl + [Cl-].[Cl-].[Cl-].[Cl-].[Sn+4]
298.15 K, 101 kPa
Settings	viscosity [mPa·s]
x1 = 0.268	0.7739 ± 0.02
x1 = 0.563	0.7396 ± 0.019
x1 = 0.795	0.7144 ± 0.018

O=S1(=O)CCCC1 + Nc1ccccc1
viscosity [mPa·s], 101 kPa
Settings	x2 = 0.1	x2 = 0.1955	x2 = 0.3007	x2 = 0.3902	x2 = 0.4997	x2 = 0.6003	x2 = 0.7027	x2 = 0.7982	x2 = 0.8995
303.15 K	9.14 ± 0.19	8.22 ± 0.17	7.31 ± 0.15	6.62 ± 0.14	5.86 ± 0.12	5.24 ± 0.11	4.66 ± 0.1	4.17 ± 0.09	3.69 ± 0.08
308.15 K	8.01 ± 0.17	7.2 ± 0.15	6.39 ± 0.14	5.78 ± 0.12	5.1 ± 0.11	4.55 ± 0.1	4.03 ± 0.09	3.59 ± 0.08	3.17 ± 0.07
313.15 K	7.05 ± 0.15	6.33 ± 0.13	5.61 ± 0.12	5.06 ± 0.11	4.46 ± 0.09	3.97 ± 0.08	3.51 ± 0.07	3.12 ± 0.07	2.75 ± 0.06

Nc1ccccc1Cl + Cc1cccc(Cl)c1
viscosity [mPa·s], 101 kPa
Settings	x1 = 0.1012	x1 = 0.2056	x1 = 0.3125	x1 = 0.4056	x1 = 0.5026	x1 = 0.6025	x1 = 0.7145	x1 = 0.818	x1 = 0.91
303.15 K	0.9087 ± 0.023	1.109 ± 0.027	1.348 ± 0.032	1.587 ± 0.038	1.867 ± 0.044	2.19 ± 0.051	2.595 ± 0.06	3.009 ± 0.069	3.408 ± 0.077
308.15 K	0.8581 ± 0.022	1.047 ± 0.026	1.269 ± 0.031	1.489 ± 0.036	1.743 ± 0.041	2.032 ± 0.047	2.386 ± 0.055	2.74 ± 0.063	3.073 ± 0.07
313.15 K	0.812 ± 0.022	0.99 ± 0.025	1.199 ± 0.029	1.402 ± 0.034	1.634 ± 0.039	1.893 ± 0.044	2.205 ± 0.051	2.507 ± 0.058	2.786 ± 0.064
318.15 K	0.7685 ± 0.021	0.9398 ± 0.024	1.138 ± 0.028	1.329 ± 0.032	1.544 ± 0.037	1.78 ± 0.042	2.056 ± 0.048	2.316 ± 0.053	2.545 ± 0.059
